In paper PMC7377239, “Cardiovascular Effects of Polychlorinated Biphenyls and Their Major Metabolites” (Environmental Health Perspectives, 2020):
Structures can show the parent of a compound that is named as a salt. Where two headings read alike, the source gives them in different places.

How the values were obtained:
[1] = tested on: iCell endothelial cells (human iPSC-derived ECs); assay: High-content imaging cytotoxicity in iCell endothelial cells, 24 h; format: cell-based; details: Homo sapiens, Endothelial cell, iPSC-EC, 24 hr; for viability at 0.1 µM / activity at 0.1 µM: 0.10 µM; for minimal effective concentration: top concentration 100.00 µM
Method in brief: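 Readouts were vehicle-normalised and fitted to a four-parameter logistic model. POD was set at one SD beyond 0.5% DMSO control means, and 100 µM was assigned when no response was seen. Cells were monolayers of iCell endothelial cells imaged after 24 h compound exposure using nuclear, mitochondrial and calcein dyes.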

[2] = tested on: HUVECs; assay: High-content imaging cytotoxicity in HUVECs, 24 h; format: cell-based, human; details: Homo sapiens, HUVEC, 24 h, HUVECs; for viability at 0.01 µM / activity at 0.01 µM / viability at 0.1 µM / activity at 0.1 µM / viability at 1 µM / activity at 1 µM / viability at 10 µM / activity at 10 µM / viability at 100 µM / activity at 100 µM: 0.00 µM = 100.00; for viability at 0.1 µM / activity at 0.1 µM: 0.10 µM; for minimal effective concentration: top concentration 100.00 µM
Method in brief: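 Confluent HUVEC monolayers, passages 1–5, received test chemicals for 24 h. Cytotoxicity was scored from triple-stain high-content images, with PODs defined by a one-SD deviation from 0.5% DMSO vehicle controls.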

[3] = 0.00 µM control = 100.00, read-out: endo.cyto.24hr
[4] = 0.00 µM control = 100.00, read-out: endo.mito.24hr
[5] = 0.00 µM control = 100.00, read-out: endo.mitoint.24hr
[6] = 0.00 µM control = 100.00, read-out: endo.nma.24hr
[7] = 0.00 µM control = 100.00, read-out: endo.tc.24hrs
[8] = 24 hr, read-out: huvec.cyto.24hr
[9] = 24 hr, read-out: huvec.mito.24hr
[10] = 24 hr, read-out: huvec.mitoint.24hr
[11] = 24 hr, read-out: huvec.nma.24hr
[12] = 24 hrs, read-out: huvec.tc.24hrs

With `O=S(=O)(O)Oc1cc(-c2ccccc2)ccc1Cl` [3-yl PCB 3 sulfate] the viability at 0.01 µM [1, 3] was 93.7%, the activity at 0.01 µM [1, 4] was 93.8% and the activity at 0.01 µM [1, 5] was 120%. It also gave an activity at 0.01 µM [1, 6] of 104%, a viability at 0.01 µM [1, 7] of 93.7% and a viability at 0.1 µM [1, 3] of 93%. For the same compound, the activity at 0.1 µM [1, 4] was 93.3%, the activity at 0.1 µM [1, 5] was 105% and the activity at 0.1 µM [1, 6] was 104%. The viability at 0.1 µM [1, 7] was 93%, the viability at 1 µM [1, 3] was 102% and the activity at 1 µM [1, 4] was 103%. It also gave an activity at 1 µM [1, 5] of 104%, an activity at 1 µM [1, 6] of 97.9% and a viability at 1 µM [1, 7] of 102%. The viability at 10 µM [1, 3] was 96.5%, the activity at 10 µM [1, 4] was 96.5% and the activity at 10 µM [1, 5] was 104%. The activity at 10 µM [1, 6] was 99.6%, the viability at 10 µM [1, 7] was 96.5% and the viability at 100 µM [1, 3] was 96.6%. The activity at 100 µM [1, 4] was 96.5%, the activity at 100 µM [1, 5] was 98.4% and the activity at 100 µM [1, 6] was 99.8%. The viability at 100 µM [1, 7] was 96.6%, the minimal effective concentration ([1]; read-out: endo.cyto.24hr POD) was 100 µM and the minimal effective concentration ([1]; read-out: endo.mito.24hr POD) was 100 µM. The minimal effective concentration ([1]; read-out: endo.mitoint.24hr POD) was 100 µM, the minimal effective concentration ([1]; read-out: endo.nma.24hr POD) was 100 µM and the minimal effective concentration ([1]; read-out: endo.tc.24hrs POD) was 100 µM. For the same compound, the viability at 0.01 µM [2, 8] was 78.2%, the activity at 0.01 µM [2, 9] was 77.8% and the activity at 0.01 µM [2, 10] was 93.6%. The activity at 0.01 µM [2, 11] was 96.6%, the viability at 0.1 µM [2, 8] was 95.5% and the activity at 0.1 µM [2, 9] was 95.5%. It also gave an activity at 0.1 µM [2, 10] of 110%, an activity at 0.1 µM [2, 11] of 102% and a viability at 1 µM [2, 8] of 95.1%. It also gave an activity at 1 µM [2, 9] of 94%, an activity at 1 µM [2, 10] of 93.8% and an activity at 1 µM [2, 11] of 95.5%. It also gave a viability at 10 µM [2, 8] of 91.1%, an activity at 10 µM [2, 9] of 89.7% and an activity at 10 µM [2, 10] of 80.7%. For the same compound, the activity at 10 µM [2, 11] was 93.3%, the viability at 100 µM [2, 8] was 98.8% and the activity at 100 µM [2, 9] was 97.9%. For the same compound, the activity at 100 µM [2, 10] was 105%, the activity at 100 µM [2, 11] was 96% and the minimal effective concentration ([2]; 24 hr, read-out: huvec.cyto.24hr POD) was 100 µM. It also gave a minimal effective concentration ([2]; 24 hr, read-out: huvec.mito.24hr POD) of 100 µM, a minimal effective concentration ([2]; 24 hr, read-out: huvec.mitoint.24hr POD) of 100 µM and a minimal effective concentration ([2]; 24 hr, read-out: huvec.nma.24hr POD) of 100 µM. It also gave a viability at 0.01 µM [2, 12] of 78.4%, a viability at 0.1 µM [2, 12] of 95.5% and a viability at 1 µM [2, 12] of 95.1%. For the same compound, the viability at 10 µM [2, 12] was 91.1%, the viability at 100 µM [2, 12] was 98.8% and the minimal effective concentration ([2]; 24 hrs, read-out: huvec.tc.24hrs POD) was 100 µM.
